Earlier results as cited in US20260248829A1, “PHOSPHOLIPID COMPOSITIONS COMPRISING EPA AND/OR DHA FOR AMELIORATING NEURODEGENERATION AND AGE-RELATED NEURODEGENERATIVE DISORDERS” (Aker BioMarine Human Ingredients AS, priority 2022, published 2026).

Test system: dopaminergic neurons in the nigro-striatal circuit
Conditions: young mice

## CC1=C(/C=C/C(C)=C/C=C/C(C)=C/C=C/C=C(C)/C=C/C=C(C)/C=C/C2=C(C)C(=O)[C@@H](O)CC2(C)C)C(C)(C)C[C@H](O)C1=O [astaxanthin]
  protection of dopaminergic neurons: protects
